Data on 40 molecules can be found in patent US6620839B2, “1,3-disubstituted and 1,3,3-trisubstituted pyrrolidines as histamine-3 receptor ligands and their therapeutic applications” (Abbott Laboratories, priority 2000, dated 2003).

The target of this test is T1, histamine-3 receptor (Rattus norvegicus, UniProt Q9QYN8).
T1 construct: from tissue; host or cells: male Sprague-Dawley rat brain cortex membranes
T1 sequence (Q9QYN8 whole entry): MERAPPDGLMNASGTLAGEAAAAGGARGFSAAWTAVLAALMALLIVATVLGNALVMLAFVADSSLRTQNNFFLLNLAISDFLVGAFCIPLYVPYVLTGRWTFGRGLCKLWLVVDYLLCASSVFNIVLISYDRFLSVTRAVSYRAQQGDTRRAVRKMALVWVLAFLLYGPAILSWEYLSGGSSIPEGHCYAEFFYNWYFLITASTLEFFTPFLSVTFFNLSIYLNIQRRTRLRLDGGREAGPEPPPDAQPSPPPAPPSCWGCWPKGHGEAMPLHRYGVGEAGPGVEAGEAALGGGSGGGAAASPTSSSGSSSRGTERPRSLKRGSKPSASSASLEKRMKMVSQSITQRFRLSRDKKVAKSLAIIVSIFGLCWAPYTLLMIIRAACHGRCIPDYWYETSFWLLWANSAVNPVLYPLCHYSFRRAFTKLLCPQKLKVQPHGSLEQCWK
In words: Histamine-3 receptor binding, (3H)-N-α-methylhistamine displacement in rat cortical membranes. Particulars: male Sprague-Dawley rat brain cortical membranes; (3H)-N-α-methylhistamine ~0.6 nM; 30 minutes at 25° C.; Cheng-Prusoff. Here is the method:
Briefly, male Sprague-Dawley rat brain cortices were homogenized (1 g tissue/10 mL buffer) in 50 mM Tris-HCl/5 mM EDTA containing protease inhibitor cocktail (Calbiochem) using a polytron set at 20,500 rpm. Homogenates were centrifuged for 20 minutes at 40,000×g. The supernatant was decanted, and pellets were weighed. The pellet was resuspended by polytron homogenization in 40 mL 50 mM Tris-HCl/5 mM EDTA with protease inhibitors and centrifuged for 20 minutes at 40,000×g. […] Test compounds were dissolved in DMSO to provide 20 mM solution, serially diluted and then added to the incubation mixtures prior to initiating the incubation assay by addition of the membranes. Thioperamide (3 μM) was used to determine nonspecific binding. Binding incubations were conducted for 30 minutes at 25° C. and terminated by addition of 2 mL of ice cold 50 mM Tris-HCl (pH 7.7) and filtration through 0.3% polyethylenimine-soaked Unifilter plates (Packard). These filters were washed 4 additional times with 2 mL of ice-cold 50 mM Tris-HCl and dried for 1 hour. Radioactivity was determined using liquid scintillation counting techniques. Results were analyzed by Hill transformation and Ki values were determined using the Cheng-Prusoff equation.
Take `CCc1ccc(S(=O)(=O)N[C@@H]2CCN(CCCOc3ccc(-c4ccc(C#N)cc4)cc3)C2)cc1` [Example 27]: the Ki was 18 nM.
For the molecule `CC(=O)Nc1ccc(S(=O)(=O)N[C@@H]2CCN(CCCOc3ccc(-c4ccccn4)cc3)C2)cc1Cl` [Example 107], the affinity, expressed as Ki, was 200 nM.
The value for `N#Cc1ccc(-c2ccc(OCCCN3CC[C@@H](NC(=O)c4cccnc4)C3)cc2)cc1` [Example 141] was 342 nM; that for `N#Cc1ccc(-c2ccc(OCCCN3CC[C@@H](NS(=O)(=O)C=Cc4ccccc4)C3)cc2)cc1` [Example 44] was 52 nM.
The value for `Cc1cc(-c2ccc(C#N)cc2)ccc1OCCCN1CC[C@@H](N(C)C)C1` [Example 168, 4′-{3-[(3R)-3-(dimethylamino)-1-pyrrolidinyl]propoxy}-3′-methyl-1,1′-biphenyl-4-carbonitrile] was 74 nM; that for “1-(4-{3-[(3R)-3-aminopyrrolidinyl]propoxy}phenyl)-1-propanone [Example 7]” was 31 nM; that for `N#Cc1ccc(-c2ccc(OCCCN3CC[C@@H](NS(=O)(=O)c4ccc(OC(F)(F)F)cc4)C3)cc2)cc1` [Example 50] was 60 nM.
Molecule `O=C(c1ccc(OCCCN2CC[C@@H](NS(=O)(=O)c3ccc(C(F)(F)F)cc3)C2)cc1)C1CC1` [Example 92, N-((3R)-1-{3-[4-(cyclopropylcarbonyl)phenoxy]propyl}pyrrolidinyl)-4-(trifluoromethyl)benzenesulfonamide] returned a Ki of 4.9 nM.
The figure for `COC(=O)N(C)[C@@H]1CCN(CCCOc2ccc(-c3ccc(C#N)cc3)cc2)C1` [Example 113, methyl (3R)-1-{3-[(4′-cyano[1,1′-biphenyl]-4-yl)oxy]propyl}pyrrolidinyl(methyl)carbamate] is 13 nM; for `N#Cc1ccc(-c2ccc(OCCCN3CC[C@@H](NC(=O)N4CCCC4)C3)cc2)cc1` [Example 136] it is 215 nM; for `CC(=O)Nc1nc(C)c(S(=O)(=O)N[C@@H]2CCN(CCCOc3ccc(-c4ccc(C#N)cc4)cc3)C2)s1` [Example 39, N-(5-{[((3R)-1-{3-[(4′-cyano[1,1′-biphenyl]-4-yl)oxy]propyl}pyrrolidinyl)amino]sulfonyl}-4-methyl-1,3-thiazol-2-yl)acetamide] it is 7.6 nM.
The molecule `O=C(c1ccc(OCCCN2CC[C@@H](NS(=O)(=O)c3cccs3)C2)cc1)C1CC1` [Example 81, N-((3R)-1-{3-[4-(cyclopropylcarbonyl)phenoxy]propyl}pyrrolidinyl)-2-thiophenesulfonamide] showed a Ki of 5 nM.
The value for `CC(=O)c1ccc(OCCCN2CC[C@@H](NS(=O)(=O)c3cccc(F)c3)C2)cc1` [Example 72, N-{(3R)-1-[3-(4-acetylphenoxy)propyl]pyrrolidinyl}-3-fluorobenzenesulfonamide] was 7.9 nM; that for `CC(=O)c1ccc(OCCCN2CC[C@@H](NC(=O)c3csc(-c4cccnc4)n3)C2)cc1` [Example 4, N-{(3R)-1-[3-(4-acetylphenoxy)propyl]pyrrolidinyl}-2-(3-pyridinyl)-1,3-thiazole-4-carboxamide] was 55 nM.
The figure for `N#Cc1ccc(-c2ccc(OCCCN3CC[C@@H](NS(=O)(=O)c4cccc5cccnc45)C3)cc2)cc1` [Example 40] is 51 nM; for `CC(C)S(=O)(=O)N[C@@H]1CCN(CCCOc2ccc(-c3ccc(C#N)cc3)cc2)C1` [Example 144] it is 21 nM.
The value for `Cc1cccc(S(=O)(=O)N[C@@H]2CCN(CCCOc3ccc(-c4ccc(C#N)cc4)cc3)C2)c1` [Example 47] was 12 nM; that for `CC(C)(C)CC(=O)N(C(=O)CC(C)(C)C)[C@@H]1CCN(CCCOc2ccc(-c3ccc(C#N)cc3)cc2)C1` [Example 147] was 209 nM; that for `O=C(c1ccc(OCCCN2CC[C@@H](NS(=O)(=O)C=Cc3ccccc3)C2)cc1)C1CC1` [Example 88, N-((3R)-1-{3-[4-(cyclopropylcarbonyl)phenoxy]propyl}pyrrolidinyl)-2-phenylethenesulfonamide] was 6.8 nM.
Consider `COc1ccc(S(=O)(=O)N[C@@H]2CCN(CCCOc3ccc(C(=O)C4CC4)cc3)C2)cc1OC` [Example 86, N-((3R)-1-{3-[4-(cyclopropylcarbonyl)phenoxy]propyl}pyrrolidinyl)-3,4-dimethoxybenzenesulfonamide], for which the Ki amounted to 1.8 nM.
The figure for `N#Cc1ccc(-c2ccc(OCCCN3CC[C@@H](NC(=O)c4csc(-c5cccnc5)n4)C3)cc2)cc1` [Example 143] is 85 nM; for `CCC(C)(C)OC(=O)N(C)[C@@H]1CCN(CCCOc2ccc(-c3ccc(C#N)cc3)cc2)C1` [Example 114, tert-pentyl (3R)-1-{3-[(4′-cyano[1,1′-biphenyl]-4-yl)oxy]propyl}pyrrolidinyl(methyl)carbamate] it is 65 nM.
On to `CC(C)c1ccc(S(=O)(=O)N(C)[C@@H]2CCN(CCCOc3ccc(-c4ccc(C#N)cc4)cc3)C2)cc1` [Example 127, N-((3R)-1-{3-[(4′-cyano[1,1′-biphenyl]-4-yl)oxy]propyl}pyrrolidinyl)-4-isoproply-N-methylbenzensulfonamide], for which the affinity corresponds to a Ki of 16 nM.
The value for `CN([C@@H]1CCN(CCCOc2ccc(-c3ccc(C#N)cc3)cc2)C1)S(=O)(=O)c1cccc(F)c1` [Example 125] was 7.4 nM; that for `Cc1cccc(S(=O)(=O)N[C@@H]2CCN(CCCOc3ccc(C(=O)C4CC4)cc3)C2)c1` [Example 91, N-((3R)-1-{3-[4-(cyclopropylcarbonyl)phenoxy]propyl}pyrrolidinyl)-3-methylbenzenesulfonamide] was 2.8 nM.
For `CN(C)C(=O)N(C)[C@@H]1CCN(CCCOc2ccc(-c3ccc(C#N)cc3)cc2)C1` [Example 115, N-((3R)-1-{3-[(4′-cyano[1,1′-biphenyl]-4-yl)oxy]propyl}pyrrolidinyl)-N,N,′N′-trimethylurea], the Ki worked out at 21 nM.
Molecule `O=C(c1ccc(OCCCN2CC[C@@H](NS(=O)(=O)c3ccc(F)c(Cl)c3)C2)cc1)C1CC1` [Example 65, 3-chloro-N-((3R)-1-{3-[4-(cyclopropylcarbonyl)phenoxy]propyl}pyrrolidinyl)-4-fluorobenzenesulfonamide] had a Ki of 5 nM.
The value for `CN(C(=O)N1CCOCC1)[C@@H]1CCN(CCCOc2ccc(-c3ccc(C#N)cc3)cc2)C1` [Example 118] was 5.7 nM; that for `CC(C)(C)OC(=O)N[C@H]1CCN(CCOc2ccc(-c3ccc(C#N)cc3)cc2)C1` [Example 100, tert-butyl (3S)-1-{2-[(4′-cyano[1,1′-biphenyl]-4-yl)oxy]ethyl}pyrrolidinylcarbamate] was 1630 nM; that for `COc1ccc(OC)c(S(=O)(=O)N[C@@H]2CCN(CCCOc3ccc(-c4ccc(C#N)cc4)cc3)C2)c1` [Example 24] was 43 nM.
The value for `CC(C)S(=O)(=O)N[C@@H]1CCN(CCCOc2ccc(C(=O)C3CC3)cc2)C1` [Example 12, N-((3R)-1-{3-[4-(cyclopropylcarbonyl)phenoxy]propyl}pyrrolidinyl)-2-propanesulfonamide] was 71 nM.
`CN([C@@H]1CCN(CCCOc2ccc(-c3ccc(C#N)cc3)cc2)C1)S(=O)(=O)c1ccc(C#N)cc1` [Example 126, 4-cyano-N-((3R)-1-{3-[(4′-cyano[1,1′-biphenyl]-4-yl)oxy]propyl}pyrrolidinyl)-N-methylbenzenesulfonamide] displayed a Ki of 4.6 nM.
The molecule `N#Cc1ccc(-c2ccc(OCCCN3CC[C@@H](NS(=O)(=O)c4ccc(Br)cc4)C3)cc2)cc1` [Example 16, 4-bromo-N-((3R)-1-{3-[(4′-cyano[1,1′-biphenyl]-4-yl)oxy]propyl}pyrrolidinyl)benzenesulfonamide] returned a Ki of 67 nM.
The value for `CC(C)(C)c1ccc(S(=O)(=O)N[C@@H]2CCN(CCCOc3ccc(-c4ccc(C#N)cc4)cc3)C2)cc1` [Example 21, 4-tert-butyl-N-((3R)-1-{3-[(4′-cyano[1,1′-biphenyl]-4-yl)oxy]propyl}pyrrolidinyl)benzenesulfonamide] was 22 nM.
The figure for `O=C(c1ccc(OCCCN2CC[C@@H](NS(=O)(=O)c3ccc(Br)cc3)C2)cc1)C1CC1` [Example 56, 4-bromo-N-((3R)-1-{3-[4-(cyclopropylcarbonyl)phenoxy]propyl}pyrrolidinyl)benzenesulfonamide] is 4.7 nM; for `CC(C)(C)CC(=O)N[C@@H]1CCN(CCCOc2ccc(-c3ccc(C#N)cc3)cc2)C1` [Example 131] it is 51 nM; for `N#Cc1ccc(S(=O)(=O)N[C@@H]2CCN(CCCOc3ccc(-c4ccccn4)cc3)C2)cc1` [Example 103, 4-cyano-N-((3R)-1-{3-[4-(2-pyridinyl)phenoxy]propyl}pyrrolidinyl)benzenesulfonamide] it is 195 nM.
`COc1ccc(S(=O)(=O)N[C@@H]2CCN(CCCOc3ccc(C(=O)C4CC4)cc3)C2)cc1` [Example 59, N-((3R)-1-{3-[4-(cyclopropylcarbonyl)phenoxy]propyl}pyrrolidinyl)-4-methoxybenzenesulfonamide] registered a Ki of 3 nM.
In turn, `N#Cc1ccc(-c2ccc(OCCCN3CC[C@@H](NS(=O)(=O)c4ccc(F)cc4)C3)cc2)cc1` [Example 17] came in with a Ki of 13 nM.
The figure for `CN([C@@H]1CCN(CCCOc2ccc(-c3ccc(C#N)cc3)cc2)C1)S(=O)(=O)c1ccc(S(C)(=O)=O)cc1` [Example 128] is 2.3 nM.

As a reminder, the Ki is a dissociation constant, usually derived from enzyme kinetics or from competition with a known ligand.
